We go through 64 compounds from ChEMBL document CHEMBL3745611 (J Med Chem, 2015).

SMILES strings stand for the structures. pIC50: −log10 of the molar value. Values after ≈ are worked out from the molar mass of the structure shown. Active and inactive are the calls of the source.

Data set [1] deals with T1, Transitional endoplasmic reticulum ATPase (Homo sapiens, UniProt P55072).
Description: Inhibition of human p97 ATPase incubated for 15 mins by ADP Glo luminescence assay
Data set [2] relates to A549. Put plainly: cells. The settings on record: Homo sapiens, A549, 72 h.
Description: Cytotoxicity against human A549 cells assessed as cell viability after 72 hrs by Celltiter-Glo assay
Data set [3] deals with T1, Transitional endoplasmic reticulum ATPase. In words: Inhibition of p97 ATPase in human A549 cells assessed as reduction in p62 protein incubated for 6 hrs by immunofluorescence assay. It is filed as cell-based. Conditions: for pIC50: read-out: IC50; for IC50: a549.
The nature of data set [4]: Half life in mouse liver microsomes. It is filed as ADME. Conditions: for half-life: liver microsomes. (In general: Liver microsomes are vesicles of endoplasmic reticulum, rich in cytochrome P450 enzymes.)
Data set [5] in a line: Aqueous solubility of compound. The format is physicochemical. Conditions: aqueous medium.
Data set [6] has as its target T1, Transitional endoplasmic reticulum ATPase. This is another data set of the same source.
Description: Inhibition of p97 ATPase in human A549 cells assessed as accumulation of K48 poly-ubiquitinated proteins incubated for 6 hrs by immunofluorescence assay
Data set [7] has the same target. The source holds these as a separate data set.
Description: Inhibition of p97 ATPase in human A549 cells assessed as accumulation of CHOP poly-ubiquitinated proteins incubated for 6 hrs by immunofluorescence assay
A short description of data set [8]: Metabolic stability of compound in mouse liver microsomes. The format is ADME.
The subject of data set [9] is HCT-116. Put plainly: Antitumor activity against human HCT116 cells xenografted in nude mouse assessed as tumor growth inhibition at 50 mg/kg, po q2d for 12 days. It is filed as functional, organism-based. For orientation: Xenograft models place foreign cells or tissue in a host animal.
The subject of a further data set is Plasma. In words: Drug uptake in plasma of mouse xenografted with human A549 cells at 150 mg/kg, po measured at 2 to 24 hrs. Conditions: in vivo. It is filed as ADME, organism-based.
In data set [10] the test system is A549. Put plainly: Drug uptake in human A549 cells xenografted in mouse at 150 mg/kg, po measured at 2 to 24 hrs. The format is ADME, organism-based. Conditions: in vivo.
Data set [11] has as its system A549. In words: Antitumor activity against human A549 cells xenografted in […] SCID beige mouse assessed as tumor growth inhibition at 1 mg/kg, iv administered twice per week. The format is functional, organism-based.
The test system of a further data set is AMO1. Conditions: Homo sapiens.
The test system of data set [12] is HCT-116. In words: Antitumor activity against human HCT116 cells xenografted in nude mouse assessed as tumor growth inhibition at 300 mg/kg, po qd. It is filed as functional, organism-based.

T1 sequence (P55072 whole entry): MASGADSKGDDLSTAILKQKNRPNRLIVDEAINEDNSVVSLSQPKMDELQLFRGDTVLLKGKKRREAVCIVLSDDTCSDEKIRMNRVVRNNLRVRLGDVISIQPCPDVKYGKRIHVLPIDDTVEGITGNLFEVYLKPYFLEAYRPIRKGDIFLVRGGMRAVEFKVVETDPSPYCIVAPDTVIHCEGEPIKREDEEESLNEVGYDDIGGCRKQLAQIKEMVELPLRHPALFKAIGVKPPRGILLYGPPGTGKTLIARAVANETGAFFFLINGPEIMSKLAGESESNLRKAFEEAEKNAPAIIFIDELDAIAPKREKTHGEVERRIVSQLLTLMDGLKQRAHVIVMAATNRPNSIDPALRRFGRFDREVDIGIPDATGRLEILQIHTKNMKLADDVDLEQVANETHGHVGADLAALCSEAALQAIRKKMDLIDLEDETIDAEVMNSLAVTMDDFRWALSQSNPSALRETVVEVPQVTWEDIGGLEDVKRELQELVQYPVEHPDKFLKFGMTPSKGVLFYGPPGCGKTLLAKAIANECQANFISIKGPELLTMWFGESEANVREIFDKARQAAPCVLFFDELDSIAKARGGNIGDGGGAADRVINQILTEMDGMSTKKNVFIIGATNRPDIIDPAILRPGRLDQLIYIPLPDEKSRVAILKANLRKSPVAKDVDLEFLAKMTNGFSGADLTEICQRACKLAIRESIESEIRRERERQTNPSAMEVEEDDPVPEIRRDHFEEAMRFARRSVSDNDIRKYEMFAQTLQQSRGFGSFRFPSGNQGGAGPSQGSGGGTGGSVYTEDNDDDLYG
Description for AMO1: Antitumor activity against human AMO1 cells xenografted in nude SCID beige mouse assessed as tumor growth inhibition at 1 mg/kg, iv administered twice per week

`Cc1[nH]c2ccccc2c1-c1nc2c(c(NCc3ccccc3)n1)CCCC2`: the pIC50 (in general, −log10 of the IC50, conventionally taken in molar units) in data set [1] was 6.83; with A549 [2] it was 4.80.

Consider `Cc1cc2c(Cl)cccc2n1-c1nc2c(c(NCc3ccccc3)n1)CNCC2`, for which the pIC50 in [1] is 6.20; in the data set with A549 [2], 5.14. The like results for `Cc1cccc2c1cc(C)n2-c1nc2c(c(NCc3ccccc3)n1)CNCC2` were, in that order, 6.19 and 5.11. Regarding `COc1ccc2c(c1)cc(C)n2-c1nc2c(c(NCc3ccccc3)n1)CNCC2`, in data set [1], the pIC50 was below 5.30.

Take `OCc1cc2ccccc2n1-c1nc2c(c(NCc3ccccc3)n1)CCCC2`: the results for the pIC50 (in data set [1]; with A549 [2]) were 7.17 and 5.08, respectively. For `COc1cccc2c(OCc3ccccc3)nc(-n3c(N)nc4ccccc43)nc12`, in [1], the pIC50 is below 5.30. `COc1cccc2c(NC(=O)c3ccccc3)nc(-n3c(N)nc4ccccc43)nc12` had a pIC50 in data set [1] below 5.30.

For the compound `Cc1cc2c(C(N)=O)cccc2n1-c1nc2c(c(NCc3ccccc3)n1)CNCC2`, the pIC50 in [3] is 5.70; in data set [1], 7.40; in data set [6], 5.75; in [7], 5.54; in the data set with A549 [2] it was 5.63. Moreover, the half-life (usually the time needed for the level to fall by half in the phase considered) in data set [4] came to 105 min. In addition, the concentration in solution in data set [5] (solubility) came to 1260 µg/mL (≈ 3040 µM). Take `COCCOc1cccc2c(NCc3ccccc3)nc(-n3c(C)nc4ccccc43)nc12`: the pIC50 in data set [1] was 6.52. In [1], `COc1cccc2c(NCc3ccccc3)nc(-n3c(N(C)C)nc4ccccc43)nc12` gave a pIC50 of 6.64.

In data set [1], `COc1cccc2c1cc(C)n2-c1nc2c(c(NCc3ccccc3)n1)CNCC2` gave a pIC50 of 5.68.

Consider `CNC(=O)c1cccc2c1cc(C)n2-c1nc2c(c(NCc3ccccc3)n1)CNCC2`, for which the pIC50 in [1] is 6.67; with A549 [2] it was 5.22. Turning to `FC(F)(F)c1cc2ccccc2n1-c1nc2c(c(NCc3ccccc3)n1)CCCC2`, the values for the pIC50 (in data set [1]; with A549 [2]) were 6.19 and below 4.40, respectively. In turn, `COc1cccc2c(NCc3ccccc3)nc(-n3cnc4ccccc43)nc12` showed a pIC50 in data set [1] below 5.30.

For `Cc1cc2ccccc2n1-c1nc2c(c(NCc3ccccc3)n1)CNCC2`, in data set [3], the IC50 entry is given as “Not Active”. In addition, the t1/2 entry in data set [4] (microsomes) is on record as “Stable”. Further, the solubility – broadly, the concentration that dissolves in the medium under given conditions – in data set [5] came out at 750 µg/mL (≈ 2030 µM). For the same compound, in [8], the Stability entry is “Stable”. Moreover, the pIC50 in data set [1] is 6.72; in data set [6], 4.81; in [7], 5.04; in the data set with A549 [2], 5.06. `Cc1cc2cc(C#N)ccc2n1-c1nc2c(c(NCc3ccccc3)n1)CNCC2` showed a pIC50 in data set [1] below 5.30. For `Cc1cc2ccc(C#N)cc2n1-c1nc2c(c(NCc3ccccc3)n1)CNCC2`, in [1], the pIC50 was 5.05.

Consider `COc1nc2ccccc2n1-c1nc(NCc2ccccc2)c2ncsc2n1`, for which the pIC50 in data set [1] is 6.74.

The compound `COc1cccc2c(NCc3ccccc3)nc(Cn3c(C)nc4ccccc43)nc12` gave a pIC50 in data set [1] below 5.30.

As for `Cc1cc2c(F)cccc2n1-c1nc2c(c(NCc3ccccc3)n1)CNCC2`, the pIC50 in data set [1] was 6.47; in the data set on A549 [2], 5.20. In data set [1], `Nc1nc2ccccc2n1-c1nc2c(c(NCc3ccccc3)n1)CNCC2` showed a pIC50 below 5.30.

For the compound `COc1cccc2c(NCc3ccccc3)nc(-n3c(C)nc4ccccc43)nc12`, in data set [1], the pIC50 was 6.82. The compound `COc1ccc2cc(C)n(-c3nc4c(c(NCc5ccccc5)n3)CNCC4)c2c1` showed a pIC50 in data set [1] below 5.30. With `COCc1cc2ccccc2n1-c1nc2c(c(NCc3ccccc3)n1)CCCC2`, the pIC50 in data set [1] is 6.10; with A549 [2], below 4.40. In the same order, the values of `NCc1cc2ccccc2n1-c1nc2c(c(NCc3ccccc3)n1)CCCC2` are 6.82 and 5.33. `COc1cccc2c(NCc3ccccc3)nc(-n3c(N)nc(C)c3C)nc12` showed a pIC50 in data set [1] below 5.30.

`COc1cccc2c(NCc3ccccc3)nc(-n3c(OC)nc4ccccc43)nc12`: the pIC50 in [1] was 6.84. The compound `Nc1nc2ccccc2n1-c1nc2c(c(NCc3ccccc3)n1)CCCC2` showed a pIC50 in data set [1] of 6.37.

Take `Cc1nn2ccccc2c1-c1nc2c(c(NCc3ccccc3)n1)CCCC2`: the results for the pIC50 (in data set [1]; in the data set with A549 [2]) were 6.44 and 4.60, respectively.

`Cc1nc2ccccn2c1-c1nc2c(c(NCc3ccccc3)n1)CCCC2`: the values for the pIC50 (in data set [1]; in the data set with A549 [2]) were 6.61 and 4.74, respectively.

As for `CCc1nc2ccccc2n1-c1nc(NCc2ccccc2)c2cccc(OC)c2n1`, the pIC50 in data set [1] was below 5.30. In [1], `Cc1ccc2cc(C)n(-c3nc4c(c(NCc5ccccc5)n3)CNCC4)c2c1` gave a pIC50 of 5.41.

Turning to `Cc1cc2c(-c3nnn[nH]3)cccc2n1-c1nc2c(c(NCc3ccccc3)n1)CNCC2`, the results for the pIC50 (in data set [1]; in the data set with A549 [2]) were 7.82 and below 4.40, respectively. In data set [1], `Cc1cc2c(C(F)(F)F)cccc2n1-c1nc2c(c(NCc3ccccc3)n1)CNCC2` had a pIC50 of 5.41. On to `Cc1cc2c(C(N)=O)cccc2n1-c1nc2c(c(NCc3ccccc3)n1)CCNC2`, for which the pIC50 in data set [1] is 7.15; in the data set on A549 [2] it was 5.61. `Cc1cc2c(C(N)=O)cccc2n1-c1nc2c(c(NCc3ccccc3)n1)CCCC2`: the pIC50 in data set [3] was 6.60; in [1], 8.22; in data set [6], 6.30; in data set [7], 6.24; in the data set with A549 [2] it was 6.23. Also, in the data set on HCT-116 [9], the TGI result was “Active”. Moreover, the Drug uptake result in the data set on Plasma and with A549 [10] was “Active” in each case. The half-life in data set [4] was found to be 44 min. The amount in solution in data set [5] (solubility) came to 4 µg/mL (≈ 9.72 µM). As for `COCCOc1cccc2c(NCc3ccccc3)nc(-n3c(OC)nc4ccccc43)nc12`, in data set [1], the pIC50 was 6.43. For the compound `COc1nc2ccccc2n1-c1nc2c(c(NCc3ccccc3)n1)CNCC2`, the pIC50 in data set [1] is 5.50. In turn, `COCCOc1cccc2c(NCc3ccccc3)nc(-n3c(N)nc4ccccc43)nc12` showed a pIC50 in data set [1] of 6.04. In the case of `CC(C)C[C@H](NC(=O)[C@H](Cc1ccccc1)NC(=O)c1cnccn1)B(O)O`, the TGI entry in the data set with A549 [11] was “inactive”. The TGI result with AMO1 was “Active”.

For the compound `COc1cccc2c(CCc3ccccc3)nc(-n3c(N)nc4ccccc43)nc12`, in data set [1], the pIC50 is below 5.30.

As for `Cc1cc2c(C(=O)NC(C)C)cccc2n1-c1nc2c(c(NCc3ccccc3)n1)CNCC2`, the pIC50 in [1] was 5.32. In turn, `COc1cccc2c(NCc3ccccc3)nc(-n3c(=O)[nH]c4ccccc43)nc12` had a pIC50 in data set [1] of 5.97. In the case of `COc1cc2ccccc2n1-c1nc2c(c(NCc3ccccc3)n1)CCCC2`, the pIC50 was 7.37 in data set [1] and 5.15 in the data set with A549 [2]. `Cc1nc2ccccc2n1-c1nc2c(c(NCc3ccccc3)n1)CCCC2` showed a pIC50 in data set [1] of 7.01. Regarding `COc1cccc2c(Cc3ccccc3)nc(-n3c(N)nc4ccccc43)nc12`, the pIC50 in data set [1] is below 5.30. On to `Cc1ccc2c(c1)cc(C)n2-c1nc2c(c(NCc3ccccc3)n1)CNCC2`, for which the pIC50 in data set [1] was below 5.30. As to `Cc1cc2c(C(=O)O)cccc2n1-c1nc2c(c(NCc3ccccc3)n1)CNCC2`, the figures for the pIC50 (in data set [1]; in the data set on A549 [2]) were 7.02 and below 4.40, respectively. The compound `COc1cccc2c(NCc3ccccc3)nc(-n3c(N)nc4c3CCCC4)nc12` had a pIC50 in data set [1] below 5.30.

In data set [1], `COc1cccc2c(N(C)Cc3ccccc3)nc(-n3c(N)nc4ccccc43)nc12` showed a pIC50 below 5.30. Regarding `COc1cccc2c(NCc3ccccc3)nc(-n3c(NC(C)=O)nc4ccccc43)nc12`, the pIC50 in data set [1] is below 5.30. Same read-out and setting: the same measure for `COc1cccc2c(NCc3ccccc3)nc(Nc3nc4ccccc4[nH]3)nc12`: below 5.30. With `Cc1cc2c(C#N)cccc2n1-c1nc2c(c(NCc3ccccc3)n1)CNCC2`, the results for the pIC50 (in [1]; with A549 [2]) were 6.84 and 5.05, respectively. In data set [1], `COc1cccc2c(NC(C)c3ccccc3)nc(-n3c(N)nc4ccccc43)nc12` (configuration not stated) showed a pIC50 below 5.30. Same read-out and setting: the same measure for `CNc1nc2ccccc2n1-c1nc(NCc2ccccc2)c2cccc(OC)c2n1`: 6.63; for `Nc1nc2ccccc2n1-c1nc(NCc2ccccc2)c2ccsc2n1`: 5.52. In turn, `COc1cccc2c(NCCc3ccccc3)nc(-n3c(N)nc4ccccc43)nc12` had a pIC50 in data set [1] below 5.30.

In turn, `Cc1nc2ccccc2n1-c1nc2c(c(NCc3ccccc3)n1)CNCC2` gave a pIC50 in [1] below 5.30. As for `COc1nc2ccccc2n1-c1nc2c(c(NCc3ccccc3)n1)CCCC2`, the pIC50 in data set [3] is 5.32; in [1], 7.12; in data set [6] it was 5.37; in [7] it was 5.03; with A549 [2], 5.13. The TGI result with HCT-116 [12] is “Active”. In data set [4], this compound registered a half-life of 11 min. The same compound displayed a solubility in data set [5] below 1 µg/mL.

In the case of `Cc1cc2c(C(N)=O)cccc2n1-c1nc2c(c(NCc3ccccc3)n1)CCOC2`, the pIC50 in the data set on A549 [2] was 5.97. As for `Cc1cc2ccccc2n1-c1nc2c(c(NCc3ccccc3)n1)CCCC2`, the results for the pIC50 (in data set [1]; in the data set with A549 [2]) were 7.33 and 5.19, respectively. Regarding `CCc1cc2ccccc2n1-c1nc2c(c(NCc3ccccc3)n1)CCCC2`, the pIC50 in [1] is 6.35. With `COc1cccc2c(NCc3ccccc3)nc(-n3c(N)nc4ccccc43)nc12`, in data set [3], the IC50 entry is “Not Active”. The half-life in [4] was found to be 7 min. Also, the solubility in data set [5] was below 1 µg/mL. The pIC50 in data set [1] is 6.09; in [6] it was 5.21; in data set [7], 5.18; in the data set with A549 [2] it was 5.49. Turning to `Cc1cc2c(C(=O)N(C)C)cccc2n1-c1nc2c(c(NCc3ccccc3)n1)CNCC2`, the pIC50 in data set [1] was below 5.30.
